Patent publication EP0970067B1, “(METHYLSULFONYL)PHENYL-2-(5H)-FURANONES WITH OXYGEN LINK AS COX-2 INHIBITORS” (Merck Frosst Canada & Co., priority 1997, dated 1998)
pIC50: −log10 of the molar value.

Key:
COX-2 [1] = molecular target: T1, COX-2 (Homo sapiens, UniProt P35354); assay: Human whole blood assay, COX-2 (LPS-induced PGE2 production); format: cell-based; design: endogenous in cells; host or cells: fresh heparinized human whole blood from volunteers, stimulated with LPS; conditions: LPS 100 µg/ml, 24 hours at 37°C, read-out: COX-2 (IC50) HWB
T1 sequence (P35354 18-604): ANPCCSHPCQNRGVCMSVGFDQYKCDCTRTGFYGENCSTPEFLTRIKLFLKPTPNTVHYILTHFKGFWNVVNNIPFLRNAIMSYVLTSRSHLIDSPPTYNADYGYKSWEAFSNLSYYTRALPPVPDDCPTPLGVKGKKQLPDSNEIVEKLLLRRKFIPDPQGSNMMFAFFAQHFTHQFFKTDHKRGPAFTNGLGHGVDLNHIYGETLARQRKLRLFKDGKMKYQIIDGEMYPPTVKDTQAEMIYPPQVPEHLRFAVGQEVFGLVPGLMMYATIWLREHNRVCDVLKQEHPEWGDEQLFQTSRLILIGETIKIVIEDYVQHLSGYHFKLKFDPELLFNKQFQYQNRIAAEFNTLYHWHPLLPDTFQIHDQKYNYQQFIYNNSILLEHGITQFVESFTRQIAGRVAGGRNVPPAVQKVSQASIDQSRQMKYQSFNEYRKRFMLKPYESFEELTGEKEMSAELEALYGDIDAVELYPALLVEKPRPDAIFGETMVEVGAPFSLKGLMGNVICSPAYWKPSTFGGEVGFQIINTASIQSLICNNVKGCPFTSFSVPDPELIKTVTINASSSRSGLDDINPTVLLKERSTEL
From the text: As well, platelets in whole blood contain a large amount of the COX-1 enzyme. Immediately following blood clotting, platelets are activated through a thrombin-mediated mechanism. This reaction results in the production of thromboxane B2 (TxB2) via activation of COX-1. Thus, the effect of test compounds on TxB2 levels following blood clotting can be examined and used as an index for COX-1 activity. Therefore, the degree of selectivity by the test compound can be determined by measuring the levels of PGE2 after LPS induction (COX-2) and TxB2 following blood clotting (COX-1) in the same assay.
Fresh blood is collected in heparinized tubes by venipuncture from both male and female volunteers. The subjects have no apparent inflammatory conditions and have not taken any NSAIDs for at least 7 days prior to blood collection. Plasma is immediately obtained from a 2mL blood aliquot to use as blank (basal levels of PGE2). The remaining blood is incubated with LPS (100 µg/ml final concentration, Sigma Chem, #L-2630 from E. coli; diluted in 0.1% BSA (Phosphate buffered saline) for 5 minutes at room temperature. Five hundred µL aliquots of blood are incubated with either 2µL of vehicle (DMSO) or 2µL of a test compound at final concentrations varying from 10nM to 30µM for 24 hours at 37°C. At the end of the incubation, the blood is centrifuged at 12,000 x g for 5 minutes to obtain plasma. A 100µL aliquot of plasma is mixed with 400µL of methanol for protein precipitation. The supernatant is obtained and is assayed for PGE2 using a radioimmunoassay kit (Amersham, RPA#530) after conversion of PGE2 to its methyl oximate derivative according to the manufacturer's procedure.

COX-2 [2] = molecular target: T1, COX-2; assay: Whole cell COX-2 assay using CHO transfected cell line (PGE2 radioimmunoassay); format: cell-based; design: expressed in transfected cells; host or cells: CHO [hCOX-2], stably transfected with pCDNAIII; conditions: CHO [hCOX-2] cells; PGE2 synthesis in response to arachidonic acid
Experimental: Compounds are tested as inhibitors of cyclooxygenase activity in whole cell cyclooxygenase assays. These assays measure prostaglandin E2 synthesis in response to arachidonic acid, using a radioimmunoassay. Cells used for these assays are chinese hamster ovary (CHO) cell lines which have been stably transfected with an eukaryotic expression vector […] containing either the human Cox-1 or Cox-2 CDNA's. U937 cell microsomes are also used to measure Cox-1 activity.
Chinese hamster ovary (CHO) cell lines which have been stably transfected with an eukaryotic expression vector pCDNAIII containing either the human COX-1 or COX-2 cDNA's are used for the assay. These cell lines are referred to as CHO [hCOX-1] and CHO [hCOX-2], respectively. For cyclooxygenase assays, CHO[hCOX-1] cells from suspension cultures and CHO[hCOX-2] cells prepared by trypsinization of adherent cultures are harvested by centrifugation (300 x g, 10 min) and washed once in HBSS containing 15 mM HEPES, pH 7.4, and resuspended in HBSS, 15 mM HEPES, pH 7.4, at a cell concentration of 1.5 x 10^6 cells/ml. Drugs to be tested are dissolved in DMSO to 66.7-fold the highest test drug concentration. […] Cells (0.3 x 10^6 cells in 200 µl) are preincubated with 3 µl of the test drug or DMSO vehicle for 15 min at 37°C. Working solutions of peroxide-free AA (5.5 µM and 110 µM AA for the CHO [hCOX-1] and CHO [COX-2] assays, respectively) are prepared by a 10-fold dilution of a concentrated AA solution in ethanol into HBSS containing 15 mM HEPES, pH 7.4.
In the assay, inhibition is determined by measuring the amount of prostaglandin E2 (PGE2) synthesized in the presence of arachidonic acid, cyclooxygenase-1 or cyclooxygenase-2 and a putative inhibitor.

pIC50 (COX-2 [1]) | pIC50 (COX-2 [2]) | SMILES
6.22 | 7.10 | C=CC(C)(O)COC1=C(c2ccc(S(C)(=O)=O)cc2)C(C)(C)OC1=O (stereo not drawn) [Example 5, 3-((2-hydroxy-2-methyl-3-butenyl)oxy)-5,5-dimethyl-4-(4-methyl-sulfonyl)phenyl-5H-furan-2-one]
5.68 | 7.15 | C=C(C)OC1=C(c2ccc(S(C)(=O)=O)cc2)C(C)(C)OC1=O [Example 7, 3-(Isopropenyloxy)-5,5-dimethyl-4-(4-methylsulfonylphenyl)-5H-furan-2-one]
> 6.40 | 6.40 | C[C@H](CO)COC1=C(c2ccc(S(C)(=O)=O)cc2)C(C)(C)OC1=O [Example 9, 3-(((2R)-3-hydroxy-2-methylpropyl)oxy)-5,5-dimethyl-4-(4-methylsulfonylphenyl)-5H-furan-2-one]
5.29 | 6.30 | C#CCOC1=C(c2ccc(S(C)(=O)=O)cc2)C(C)(C)OC1=O [Example 14, 5,5-Dimethyl-4-(4-methylsulfonylphenyl)3-(2-propynyloxy)-5H-furan-2-one]
5.74 | 6.70 | C=CCOC1=C(c2ccc(S(C)(=O)=O)cc2)C(C)(C)OC1=O [Example 15, 3-(Allyloxy)-5,5-dimethyl-4-(4-methylsulfonylphenyl)-5H-furan-2-one]
> 6.40 | – | C=C(C)COC1=C(c2ccc(S(C)(=O)=O)cc2)C(C)(C)OC1=O [Example 18, 5,5-dimethyl-3-(2-methylallyloxy)-4-(4-methylsulfonylphenyl)-5H-furan-2-one]
6.22 | 6.70 | C=C(CF)COC1=C(c2ccc(S(C)(=O)=O)cc2)C(C)(C)OC1=O [Example 20, 3-{[2-(fluoromethyl)allyl]oxy}-5,5-dimethyl-4-(4-methylsulfonyl-phenyl)-5H-furan-2-one]

Continued, compound first:

SMILES | pIC50 (COX-2 [1]) | pIC50 (COX-2 [2])
C=CC(C)OC1=C(c2ccc(S(C)(=O)=O)cc2)C(C)(C)OC1=O (stereo not drawn) [Example 1, 5,5-Dimethyl-3-((1-methylallyl)oxy)-4-(4-methylsulfonylphenyl)-5H-furan-2-one] | 5.72 | 7.30
CC(CO)OC1=C(c2ccc(S(C)(=O)=O)cc2)C(C)(C)OC1=O (stereo not drawn) [Example 12, 3-(2-Hydroxy-1-methylethoxy)-5,5-dimethyl-4-(4-methylsulfonyl-phenyl)-5H-furan-2-one] | 5.33 | 6.30
CC1(C)OC(=O)C(OC2CCC3(CC2)OCCO3)=C1c1ccc(S(C)(=O)=O)cc1 [Example 16, 3-(1,4-dioxaspiro[4.5]dec-8-yloxy)-5,5-dimethyl-4-(4-methylsulfonyl-phenyl)-5H-furan-2-one] | – | 6.40
CC1(COC2=C(c3ccc(S(C)(=O)=O)cc3)C(C)(C)OC2=O)CC1 [Example 19, 5,5-Dimethyl-3-[(1-methylcyclopropyl)methoxy]-4-(4-methylsulfonyl-phenyl)-5H-furan-2-one] | > 6.40 | –
CC1(C)OC(=O)C(OCC2(CO)CC2)=C1c1ccc(S(C)(=O)=O)cc1 [Example 21, 3-{[1-(hydroxymethyl)cyclopropyl]methoxy}-5,5-dimethyl-4-(4-methylsulfonylphenyl)-2-5H-furan-2-one] | 6.05 | 6.22
CC1(C)OC(=O)C(OC2CCCC2=O)=C1c1ccc(S(C)(=O)=O)cc1 (stereo not drawn) [Example 24, 3-((2-oxocyclopentyl)oxy)-5,5-dimethyl-4-(4-methylsulfonylphenyl)-5H-furan-2-one] | 6.10 | 6.40
CC1(C)OC(=O)C(OC2CCCC2(F)F)=C1c1ccc(S(C)(=O)=O)cc1 (stereo not drawn) [Example 25] | > 6.40 | –
